Measured values: PMC10779086, “3-O-Methyltolcapone and Its Lipophilic Analogues Are Potent Inhibitors of Transthyretin Amyloidogenesis with High Permeability and Low Toxicity” (International Journal of Molecular Sciences, 2023)
Several values for one entry are separate records, joined by “and”; a condition that tells them apart may be missing. Equal values may be shown once.

Tests used:
TTR [1] = biological target: T1, TTR (Homo sapiens, UniProt P02766); experiment: TTR tetramer stability in diluted human plasma with urea, by immunoblotting; assay type: biochemical; design: from tissue; host or cells: human plasma; conditions: 4 M urea, versus DMSO control
Description: The TTR tetramer stability assay in the presence of urea and TTR ligands was performed according to a previously reported Western Blot procedure, with some modifications as follows. Aliquots of human plasma were diluted 8-fold in sodium phosphate buffer (NaP 40 mM, NaCl 150 mM pH 7.4) supplemented with 2 µM or 20 µM of each ligand. A plasma aliquot supplemented with DMSO was used as a negative control. After 2 h of incubation at 20 °C, an equal volume of 8 M urea in sodium phosphate buffer was added to obtain a final 4 M urea concentration and final ligand concentration of 1 µM or 10 µM. Incubation was prolonged for 18 h at 20 °C, followed by non-denaturing SDS-PAGE using Tris-Glycine buffers containing 0.025% of SDS in the running buffer and 0.2% of SDS in the Laemmli buffer. […] Blotting was accomplished with a Trans-Blot SD transfer apparatus (BIORAD), followed by incubation of nitrocellulose membranes with blocking buffer containing 5% skim milk overnight at 25 °C. Immunodetection of TTR monomers was performed by employing rabbit anti-human TTR polyclonal antibody (Dako) as a primary and goat anti-rabbit antibody labelled with DyLight 680 ([…]) as a secondary. Western Blot images were recorded by using ChemiDoc MP imaging system (BIORAD) and analysed with Image Lab software v. 5.1 (BIORAD). The experiment was performed in triplicate, and ligands stabilisation capability was evaluated as the relative intensity of the TTR monomer in each condition in comparison to the negative control. Statistical analyses by means of ANOVA and graphic representations were performed with GraphPad Prism.

[2] = plasma; cited from earlier work
TTR [3] = biological target: T1, TTR; experiment: Isothermal titration calorimetry (ITC), one-binding-site model; design: made in house; host or cells: E. coli BL21; ∆S: unit not given here; conditions: single-binding-site model, 25 °C; for Kd: pH 7.4, 5% DMSO
Description: At an absorbance value of 600 nm around 0.3, the temperature was shifted to 30 °C.
Data were fitted using the “one-binding-site model” of the Malvern version of ORIGIN v.7. The heat of binding (ΔH), the stoichiometry (n), entropy (ΔS) and the dissociation constant (Kd) were then calculated from plots of the heat evolved per mole of ligand injected versus the molar ratio of ligand to protein using the software provided by the vendor (Table 3). Sample preparation is detailed below. […] A 10 µM protein stock in 2× buffer was then prepared and diluted 1:1 with a 10% DMSO solution, to obtain a 5 µM TTR solution in 1× buffer A and 5% DMSO. Different protein concentrations (3–5 µM) assayed in the replicates were prepared accordingly, starting from a 2× protein solution in 2× buffer A. Each ligand was dissolved in 100% DMSO and a 2 mM stock solution in 100% DMSO was prepared. A 200 µM compound solution was obtained in 10% DMSO and diluted 1:1 with 2× buffer A, to obtain a 100 µM ligand solution to be used for the ITC assays (in 1× buffer A and 5% DMSO).

Caco-2 cells = experiment: Caco-2 intestinal permeability; assay type: in vitro ADME, human; conditions: A→B, relative to tolcapone
Description: Caco-2 cells (cod. HTB-37) were bought from ATCC (American Type Culture Collection, Rockville, MD, USA). Caco-2 cells were cultured for 21 days on a 24 trans-well plate to reach the right confluence and differentiate until the formation of the intestinal epithelium mimetic monolayer. The test substance permeability was measured in both directions (apical to basolateral [A→B] and basolateral to apical [B→A]) across the cell monolayer. The assay was carried out in HBSS transport medium at pH 7.4. Test substance at single concentration (10 μM) was tested in duplicate at one time point (60 min). Monolayer integrity of Caco-2 cells was evaluated by TEER measurements during the experiment and by Lucifer Yellow test after the incubation with the test compound. The concentrations of the test substance and/or reference controls were measured by LC-MS/MS.
When the inhibitor leads the efflux ratio to a significant reduction (>50%) or to unity, the test compound is classified as a probable substrate of that efflux transporter. As control, the modulation of the efflux ratio of a reference known substrate (Digoxin) was evaluated with or without the respectively inhibitors in every experiment. […] In parallel, mass balance (%) of recovered test substance was also determined. […] Outside these ranges the permeability data is not reliable.

relative abundance of TTR monomer (TTR [1]; ligand 1 µM) | relative abundance of TTR monomer (TTR [1]; ligand 10 µM) | n (stoichiometry of binding, ligand:TTR tetramer) (TTR [3]) | ∆S (TTR [3]) | Kd (TTR [3]) | increase of permeability Papp value (A→B) compared to tolcapone (Caco-2 cells) | melting point | Structure (SMILES) | half-life [2] | ∆H (TTR [3])
14% and 14.1 ± 1.8% | 9.4 ± 1.5% | 1.9 ± 0.2 | 4.6 ± 0.5 | 33 ± 9 nM |  |  | COc1cc(C(=O)c2ccc(C)cc2)cc([N+](=O)[O-])c1O [3-OMT, 3-O-methyltolcapone] | 40.9 h | -8.9 kcal/mol and -8.9 ± 0.3 kcal/mol
17% and 17.2 ± 2.1% | 9.5 ± 2.8% | 1.8 ± 0.1 | −2.9 ± 0.9 | 71 ± 26 nM | 2.5 fold | 144 to 145 °C | COc1cc(C(=O)c2cc(C)cc(C)c2)cc([N+](=O)[O-])c1O [Compound 1, (4-Hydroxy-3-methoxy-5-nitrophenyl)-1-(3,5-dimethylphenyl)methanone] |  | -11.5 kcal/mol and -11.5 ± 1.3 kcal/mol
7% and 7.5 ± 0.4% | 9.2 ± 1.5% | 2.1 ± 0.3 | −0.4 ± 0.1 | 25 ± 5 nM | 2.5 fold | 126 to 127 °C | COc1cc(C(=O)c2ccc(C)cc2C)cc([N+](=O)[O-])c1O [Compound 2, (4-Hydroxy-3-methoxy-5-nitrophenyl)-1-(2,4-dimethylphenyl)methanone] |  | -10.5 kcal/mol and -10.5 ± 0.2 kcal/mol
